Test results published in patent US20250235460A1, “COMBINATION THERAPY USING GLUCOSE-DEPENDENT INSULINOTROPIC POLYPEPTIDE RECEPTOR ANTAGONIST COMPOUNDS AND GLP-1 RECEPTOR AGONIST COMPOUNDS” (Pfizer Inc., priority 2024, published 2025).

Assays:
human GLP-1R [1] = molecular target: human GLP-1R (Homo sapiens, UniProt P43220, G168S); experiment: CHO GLP-1R Clone H6 cAMP HTRF agonist assay (Assay 1, high receptor density); type: cell-based; conditions: for EC50: CHO GLP-1R clone H6, cAMP HTRF, geometric mean; for Emax: read-out: Assay 1 Emax (%)
human GLP-1R (Homo sapiens, UniProt P43220, G168S), sequence (P43220 24-463 G168S): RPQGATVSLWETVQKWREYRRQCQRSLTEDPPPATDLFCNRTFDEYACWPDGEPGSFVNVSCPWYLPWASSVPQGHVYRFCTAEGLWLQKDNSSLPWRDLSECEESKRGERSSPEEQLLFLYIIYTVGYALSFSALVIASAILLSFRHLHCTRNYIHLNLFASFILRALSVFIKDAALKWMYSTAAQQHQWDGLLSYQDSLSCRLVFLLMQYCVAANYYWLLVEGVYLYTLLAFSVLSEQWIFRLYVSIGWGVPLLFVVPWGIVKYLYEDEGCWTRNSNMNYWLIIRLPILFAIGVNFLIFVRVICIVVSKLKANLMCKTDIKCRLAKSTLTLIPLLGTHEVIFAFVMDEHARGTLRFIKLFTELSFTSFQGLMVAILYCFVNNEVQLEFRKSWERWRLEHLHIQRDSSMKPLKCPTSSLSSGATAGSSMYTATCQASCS
Outline: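 EC50 values are reported as geometric means and Emax as arithmetic means across the listed number of replicates, both given to two significant figures.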

human GLP-1R [2] = molecular target: human GLP-1R (Homo sapiens, UniProt P43220, L260F); experiment: CHO GLP-1R Clone C6 cAMP HTRF agonist assay (Assay 2, low receptor density); type: cell-based; conditions: for EC50: CHO GLP-1R clone C6, cAMP HTRF, geometric mean; for Emax: CHO GLP-1R clone C6, arithmetic mean, relative to saturating GLP-1 (1 μM)
human GLP-1R (Homo sapiens, UniProt P43220, L260F), sequence (P43220 24-463 L260F): as the sequence (P43220 24-463 G168S) above, with S145G, L237F counted along it
Excerpt: In Table 5 and Table 6, assay data are presented to two (2) significant figures as the geometric mean (EC50s) and arithmetic mean (Emax) based on the number of replicates listed (Number). A blank cell means there was no data for that Example or the Emax was not calculated.

[3] = CHO GLP-1R clone H6, arithmetic mean, relative to saturating GLP-1 (1 μM)

EC50 (human GLP-1R [1]) [nM]	Emax (human GLP-1R [1]; [3]) [%]	EC50 (human GLP-1R [2]) [nM]	Emax (human GLP-1R [2]) [%]	Assay 1 Emax (%) (human GLP-1R [1]; [3])	Compound
37	69	1200	83	–	O=C(O)c1ccc2nc(CN3CCC(c4cccc(OCc5ccc(Cl)cc5F)n4)CC3)n(Cc3ccon3)c2c1 [Compound 344B, 2-[(4-{6-[(4-chloro-2-fluorobenzyl)oxy]pyridin-2-yl}piperidin-1-yl)methyl]-1-(1,2-oxazol-3-ylmethyl)-1H-benzimidazole-6-carboxylic acid]
1.5	73	24	91	–	COCCn1c(CN2CCC(c3cccc(OCc4ccc(C)cc4)n3)CC2)nc2ccc(C(=O)O)cc21 [Compound 217B, Ammonium 2-((4-(6-((4-Methylbenzyl)oxy)pyridin-2-yl)piperidin-1-yl)methyl)-1-(2-methoxyethyl)-1H-benzo[d]imidazole-6-carboxylate]
0.3	80	4.4	95	–	Cn1c(CN2CCC(c3cccc(OCc4cccc(C#N)c4)n3)CC2)nc2ccc(C(=O)O)cc21 [Compound 231B, 2-[(4-{6-[(3-cyanobenzyl)oxy]pyridin-2-yl}piperidin-1-yl)methyl]-1-methyl-1H-benzimidazole-6-carboxylic acid]
68	77	1700	110	–	COCCn1c(CN2CC[C@H](c3cccc(OCc4ccc(Cl)cc4F)n3)[C@@H](F)C2)nc2ccc(C(=O)O)cc21 (racemic) [Compound 189B, rac 2-{[(3S,4S)-4-{6-[(4-chloro-2-fluorobenzyl)oxy]pyridin-2-yl}-3-fluoropiperidin-1-yl]methyl}-1-(2-methoxyethyl)-1H-benzimidazole-6-carboxylic acid]
3.2	–	55	86	–	CCn1nncc1Cn1c(CN2CCC(c3cccc(OCc4ccc(C#N)cc4F)n3)CC2)nc2ccc(C(=O)O)cc21 [Compound 164B, 2-[(4-{6-[(4-cyano-2-fluorobenzyl)oxy]pyridin-2-yl}piperidin-1-yl)methyl]-1-[(1-ethyl-1H-1,2,3-triazol-5-yl)methyl]-1H-benzimidazole-6-carboxylic acid]
110	68	4400	110	–	CO[C@H]1C[C@@H](Cn2c(CN3CCC(c4cccc(OCc5ccc(Cl)cc5F)n4)CC3)nc3ccc(C(=O)O)cc32)C1 [Compound 195B, 2-[(4-{6-[(4-chloro-2-fluorobenzyl)oxy]pyridin-2-yl}piperidin-1-yl)methyl]-1-[(cis-3-methoxycyclobutyl)methyl]-1H-benzimidazole-6-carboxylic acid]
0.95	92	17	120	–	C[C@H]1CN(c2cccc(OCc3ccc(C#N)cc3F)n2)CCN1Cc1nc2ccc(C(=O)O)cc2n1C[C@@H]1CCO1 [Compound 115B, 2-{[(2S)-4-{6-[(4-cyano-2-fluorobenzyl)oxy]pyridin-2-yl}-2-methylpiperazin-1-yl]methyl}-1-[(2S)-oxetan-2-ylmethyl]-1H-benzimidazole-6-carboxylic acid]
5.6	80	200	89	–	CC[C@H]1CN(c2cccc(OCc3ccc(Cl)cc3F)n2)CCN1Cc1nc2ccc(C(=O)O)cc2n1CCOC [Compound 353B, 2-{[(2S)-4-{6-[(4-chloro-2-fluorobenzyl)oxy]pyridin-2-yl}-2-ethylpiperazin-1-yl]methyl}-1-(2-methoxyethyl)-1H-benzimidazole-6-carboxylic acid]
25	78	330	96	–	CN1CCOC(CCn2c(CN3CCC(c4cccc(OCc5ccc(Cl)cc5F)n4)CC3)nc3ccc(C(=O)O)cc32)C1 (stereo not drawn) [Compound 286B, 2-[(4-{6-[(4-chloro-2-fluorobenzyl)oxy]pyridin-2-yl}piperidin-1-yl)methyl]-1-[2-(4-methylmorpholin-2-yl)ethyl]-1H-benzimidazole-6-carboxylic acid]
18	84	350	77	–	O=C(O)c1ccc2nc(CN3CCC(c4cccc(OCc5ccc(Cl)cc5F)n4)CC3)n(Cc3ncco3)c2n1 [Compound 167B, 2-[(4-{6-[(4-chloro-2-fluorobenzyl)oxy]pyridin-2-yl}piperidin-1-yl)methyl]-3-(1,3-oxazol-2-ylmethyl)-3H-imidazo[4,5-b]pyridine-5-carboxylic acid]
–	–	1700	88	79	N#Cc1ccc(COc2cccc(C3CCN(Cc4nc5ccc(C(=O)O)nc5n4Cc4ncco4)CC3)n2)c(F)c1 [Compound 168B, 2-[(4-{6-[(4-cyano-2-fluorobenzyl)oxy]pyridin-2-yl}piperidin-1-yl)methyl]-3-(1,3-oxazol-2-ylmethyl)-3H-imidazo[4,5-b]pyridine-5-carboxylic acid]
5.3	76	21	84	–	Cc1cc(C)n(CCn2c(CN3CCC(c4cccc(OCc5ccc(Cl)cc5F)n4)CC3)nc3ccc(C(=O)O)cc32)n1 [Compound 332B, 2-[(4-{6-[(4-chloro-2-fluorobenzyl)oxy]pyridin-2-yl}piperidin-1-yl)methyl]-1-[2-(3,5-dimethyl-1H-pyrazol-1-yl)ethyl]-1H-benzimidazole-6-carboxylic acid]
3.4	79	53	68	–	Cn1ccnc1Cn1c(CN2CCC(c3cccc(OCc4ccc(Cl)cc4F)n3)CC2)nc2ccc(C(=O)O)cc21 [Compound 256B, 2-[(4-{6-[(4-chloro-2-fluorobenzyl)oxy]pyridin-2-yl}piperidin-1-yl)methyl]-1-[(1-methyl-1H-imidazol-2-yl)methyl]-1H-benzimidazole-6-carboxylic acid]
6	73	150	84	–	N#Cc1ccc(COc2cccc(C3CCN(Cc4nc5ccc(C(=O)O)cc5n4Cc4cnco4)CC3)n2)c(F)c1 [Compound 141B, 2-[(4-{6-[(4-cyano-2-fluorobenzyl)oxy]pyridin-2-yl}piperidin-1-yl)methyl]-1-(1,3-oxazol-5-ylmethyl)-1H-benzimidazole-6-carboxylic acid]
0.55	77	9.2	94	–	COCCn1c(CN2CC[C@H](c3cccc(OCc4ccc(Cl)cc4F)n3)[C@H](O)C2)nc2ccc(C(=O)O)cc21 (racemic) [Compound 191B, rac-2-{[(3R,4S)-4-{6-[(4-chloro-2-fluorobenzyl)oxy]pyridin-2-yl}-3-hydroxypiperidin-1-yl]methyl}-1-(2-methoxyethyl)-1H-benzimidazole-6-carboxylic acid]
260	88	5600	86	–	C[C@H]1CN(c2cccc(OCc3ccc(Cl)cc3F)n2)CCN1Cc1nc2ccc(C(=O)O)cc2n1C[C@@H]1CCO1 [Compound 135B, 2-{[(2S)-4-{6-[(4-chloro-2-fluorobenzyl)oxy]pyridin-2-yl}-2-methylpiperazin-1-yl]methyl}-1-[(2S)-oxetan-2-ylmethyl]-1H-benzimidazole-6-carboxylic acid]
12	64	270	–	–	C[C@H]1CN(c2cccc(OCc3ccc(C#N)cc3)n2)CCN1Cc1nc2ccc(C(=O)O)cc2n1CC1CCCO1 (stereo partly drawn) [Compound 362B, 2-{[(2S)-4-{6-[(4-cyanobenzyl)oxy]pyridin-2-yl}-2-methylpiperazin-1-yl]methyl}-1-(tetrahydrofuran-2-ylmethyl)-1H-benzimidazole-6-carboxylic acid]
14	72	190	83	–	O=C(O)c1ccc2nc(CN3CCN(c4cccc(OCc5ccc(Cl)cc5F)n4)CC3)n(Cc3cnco3)c2c1 [Compound 158B, 2-[(4-{6-[(4-chloro-2-fluorobenzyl)oxy]pyridin-2-yl}piperazin-1-yl)methyl]-1-(1,3-oxazol-5-ylmethyl)-1H-benzimidazole-6-carboxylic acid]
21	82	200	81	–	CN1CCCCC1Cn1c(CN2CCC(c3cccc(OCc4ccc(Cl)cc4F)n3)CC2)nc2ccc(C(=O)O)cc21 (stereo not drawn) [Compound 285B, 2-[(4-{6-[(4-chloro-2-fluorobenzyl)oxy]pyridin-2-yl}piperidin-1-yl)methyl]-1-[(1-methylpiperidin-2-yl)methyl]-1H-benzimidazole-6-carboxylic acid]
15	83	270	88	–	CN1CCC(Cn2c(CN3CCC(c4cccc(OCc5ccc(Cl)cc5F)n4)CC3)nc3ccc(C(=O)O)cc32)CC1 [Compound 283B, 2-[(4-{6-[(4-chloro-2-fluorobenzyl)oxy]pyridin-2-yl}piperidin-1-yl)methyl]-1-[(1-methylpiperidin-4-yl)methyl]-1H-benzimidazole-6-carboxylic acid]
300	92	7700	100	–	C[C@H]1CN(c2cccc(OCc3ccc(F)cc3F)n2)CCN1Cc1nc2ccc(C(=O)O)cc2n1C[C@@H]1CCO1 [Compound 134B, 2-{[(2S)-4-{6-[(2,4-difluorobenzyl)oxy]pyridin-2-yl}-2-methylpiperazin-1-yl]methyl}-1-[(2S)-oxetan-2-ylmethyl]-1H-benzimidazole-6-carboxylic acid]
